{"source": "patent US20030004143A1", "about": "“Use of NSAIDs for prevention and treatment of cellular abnormalities of the female reproductive tract” (priority 2001, published 2003)", "origin": "cited, not measured here", "key": {"OPC cell lines": {"system": "OPC cell lines", "conditions": "all OPC cell lines tested"}}}
{"smiles": "O=C(c1ccccc1)c1ccc2n1CCC2C(=O)O", "note": "(stereo not shown) [ketorolac, (.+−.)5(benzoyl)-2,3-dihydro-1H-pyrrolizine-1carboxylic acid]", "values": [{"measurement": "OPC growth in vivo", "setting": "OPC", "result": "reduced OPC growth in vivo"}, {"measurement": "IL-6 levels", "setting": "OPC cell lines", "result": "continuously and significantly decreased"}, {"measurement": "IL-8 levels", "setting": "OPC cell lines", "result": "continuously and significantly decreased"}, {"measurement": "PGE2 production", "setting": "OPC cell lines", "result": "continuously and significantly decreased"}]}
